One may read the AC50 as the midpoint of the concentration-response curve, whichever way the signal moves.

Activity calls are given as the source filed them.

These results are taken from ChEMBL document CHEMBL1201862, “PubChem BioAssay data set” (2004).

The target of assay [1] is Steroidogenic factor 1 (Homo sapiens, UniProt Q13285). Kind of assay: Counterscreen for inverse agonists of the liver receptor homolog-1 (LRH-1; NR5A2): Luminescence-based cell-based high throughput dose response assay to identify inverse agonists of the Steroidogenic Factor 1 Nuclear Receptor (SF1; NR5A1). Format: functional. Background: The purpose of a counterscreen is to sort out artefacts and off-target activity.
Sequence of Steroidogenic factor 1 (Q13285 whole entry): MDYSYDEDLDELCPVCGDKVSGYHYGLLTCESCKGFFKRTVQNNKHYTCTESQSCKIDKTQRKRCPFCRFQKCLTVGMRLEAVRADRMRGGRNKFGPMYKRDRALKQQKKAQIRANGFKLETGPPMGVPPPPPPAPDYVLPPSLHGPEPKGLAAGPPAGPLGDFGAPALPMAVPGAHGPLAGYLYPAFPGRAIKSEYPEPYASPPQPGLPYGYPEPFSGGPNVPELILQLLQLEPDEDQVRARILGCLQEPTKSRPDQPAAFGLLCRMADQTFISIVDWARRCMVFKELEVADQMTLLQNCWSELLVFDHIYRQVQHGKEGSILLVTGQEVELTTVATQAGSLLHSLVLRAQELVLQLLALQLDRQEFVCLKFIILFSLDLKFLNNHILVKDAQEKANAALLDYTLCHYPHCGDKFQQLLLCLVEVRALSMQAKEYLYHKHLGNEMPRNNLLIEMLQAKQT

The nature of assay [2]: StAR promoter reporter inhibition counter-screen, dose response, counter-screen for LRH-1 inverse agonist project, cell-based, luminescence, luciferase reporter (AID 651969). Format: functional.
A short description of assay [3]: microbe, parasite or virus in culture. Format: functional. To be noted: Mycobacterium tuberculosis.
The target of assay [4] is Nuclear receptor subfamily 5 group A member 2 (Homo sapiens, UniProt O00482). Format: functional, cell-based.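 Note: HEK293T cells transfected with LRH-1 and a StAR promoter luciferase reporter; potency for inhibitors that lower LRH-1 driven reporter light.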
Sequence of Nuclear receptor subfamily 5 group A member 2 (O00482 whole entry): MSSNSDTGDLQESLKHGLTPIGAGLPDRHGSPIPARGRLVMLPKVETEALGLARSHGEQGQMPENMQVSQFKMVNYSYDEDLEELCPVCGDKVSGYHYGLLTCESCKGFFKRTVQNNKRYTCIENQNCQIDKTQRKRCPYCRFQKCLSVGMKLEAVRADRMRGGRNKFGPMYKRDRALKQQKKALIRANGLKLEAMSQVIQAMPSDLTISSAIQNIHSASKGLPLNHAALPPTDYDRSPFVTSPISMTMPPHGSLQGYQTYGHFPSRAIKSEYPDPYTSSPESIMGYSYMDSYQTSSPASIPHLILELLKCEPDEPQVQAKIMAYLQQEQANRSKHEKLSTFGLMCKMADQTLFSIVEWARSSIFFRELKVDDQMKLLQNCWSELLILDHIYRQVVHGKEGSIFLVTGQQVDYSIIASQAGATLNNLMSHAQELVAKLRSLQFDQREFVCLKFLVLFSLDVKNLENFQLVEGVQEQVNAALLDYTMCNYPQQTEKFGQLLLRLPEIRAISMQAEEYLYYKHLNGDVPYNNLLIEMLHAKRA
In assay [5] the target is T1, DNA repair and recombination protein RAD54-like (Homo sapiens, UniProt Q92698).
T1 sequence (Q92698 whole entry): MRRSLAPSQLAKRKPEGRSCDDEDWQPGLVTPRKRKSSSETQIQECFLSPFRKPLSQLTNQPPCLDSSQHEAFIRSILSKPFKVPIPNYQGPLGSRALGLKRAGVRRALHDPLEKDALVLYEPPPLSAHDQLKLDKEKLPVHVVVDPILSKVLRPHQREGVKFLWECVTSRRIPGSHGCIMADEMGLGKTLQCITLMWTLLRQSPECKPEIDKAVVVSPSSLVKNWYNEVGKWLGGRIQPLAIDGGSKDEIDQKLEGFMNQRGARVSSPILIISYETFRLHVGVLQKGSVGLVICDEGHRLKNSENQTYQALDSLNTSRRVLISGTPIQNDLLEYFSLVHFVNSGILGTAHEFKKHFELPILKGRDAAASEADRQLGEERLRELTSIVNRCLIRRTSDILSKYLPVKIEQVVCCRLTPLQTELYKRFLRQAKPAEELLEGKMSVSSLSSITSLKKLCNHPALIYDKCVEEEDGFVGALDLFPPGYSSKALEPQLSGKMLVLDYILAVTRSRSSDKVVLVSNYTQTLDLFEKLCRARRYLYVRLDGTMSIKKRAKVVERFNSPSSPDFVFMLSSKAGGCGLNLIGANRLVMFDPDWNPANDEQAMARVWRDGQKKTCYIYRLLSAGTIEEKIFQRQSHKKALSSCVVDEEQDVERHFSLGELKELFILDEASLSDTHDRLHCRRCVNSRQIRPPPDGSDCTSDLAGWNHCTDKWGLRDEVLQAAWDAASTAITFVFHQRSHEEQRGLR
Kind of assay: inhibitors of human RAD54 branch migration, confirmation, biochemical, fluorescence, cherry-picked samples, dose series (AID 651657). Format: functional.

The target in assay [6] is T2, Corticotropin-releasing factor receptor 2/Corticotropin-releasing factor-binding protein (Homo sapiens, UniProt P24387+Q13324).
T2 sequence (Q13324 whole entry): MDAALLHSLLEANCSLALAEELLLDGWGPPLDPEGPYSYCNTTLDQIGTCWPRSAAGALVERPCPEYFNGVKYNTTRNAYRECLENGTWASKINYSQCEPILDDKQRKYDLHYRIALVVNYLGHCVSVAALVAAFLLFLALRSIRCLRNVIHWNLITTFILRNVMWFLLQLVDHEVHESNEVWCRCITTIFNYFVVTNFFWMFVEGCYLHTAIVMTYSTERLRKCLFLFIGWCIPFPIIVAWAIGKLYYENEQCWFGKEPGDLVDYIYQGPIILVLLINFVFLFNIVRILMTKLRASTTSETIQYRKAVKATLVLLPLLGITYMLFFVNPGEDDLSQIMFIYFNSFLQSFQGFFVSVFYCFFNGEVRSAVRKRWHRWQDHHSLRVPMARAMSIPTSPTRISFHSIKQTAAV
T2 sequence (P24387 whole entry): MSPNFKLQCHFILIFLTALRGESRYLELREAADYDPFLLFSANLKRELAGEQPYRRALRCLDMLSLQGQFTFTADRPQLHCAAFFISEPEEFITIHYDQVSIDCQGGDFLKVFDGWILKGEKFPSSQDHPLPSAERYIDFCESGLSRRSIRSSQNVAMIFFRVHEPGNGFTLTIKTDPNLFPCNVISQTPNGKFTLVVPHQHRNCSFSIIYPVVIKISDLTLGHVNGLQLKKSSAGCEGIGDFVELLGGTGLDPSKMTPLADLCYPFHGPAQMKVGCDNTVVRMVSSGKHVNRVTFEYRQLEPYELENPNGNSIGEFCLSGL
The assay is described as follows: activators of CRF receptor 2 with binding protein – uHTS hits, confirmation (AID 602473). The assay is classed as functional. The settings on record: read-out: EC50_Mean.

Assay [7] addresses T2, Corticotropin-releasing factor receptor 2/Corticotropin-releasing factor-binding protein. The assay is described as follows: Dose Response confirmation of uHTS hits for small molecule antagonists of the CRF-binding protein and CRF-R2 receptor complex. The settings on record: read-out: IC50_Mean. The assay is classed as functional.
The nature of assay [8]: CRF-BP/CRF-R2 complex antagonists, dose response, cell-based, uHTS hits, 384-well (AID 651639). The assay is classed as functional, Homo sapiens. To be noted: read-out: IC50_Mean.
Assay [9] can be described thus: cytotoxicity in HEK-293T cells, dose response, cytotoxicity control for TCR NF-kB inhibitor project, luminescence, T-cell screen hits (AID 489026).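 Note: cells exposed to compound about 14 hours before the viability readout.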 Format: functional, cell-based.
The subject of assay [10] is HEK293. Kind of assay: optical interference in Abeta FP readout, dose response, artefact control for IDE activator project, biochemical, fluorescence polarization (AID 588442). Format: functional, cell-based. The settings on record: Homo sapiens. (In general: Fluorescence polarisation rises when a labelled molecule tumbles more slowly, as on binding a larger partner.)

The subject of assay [11] is HEK293. The assay is described as follows: HEK cell cytotoxicity by LDH release, dose response, cytotoxicity control for IDE activator project, fluorescence, HEK cells (AID 588440).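 Note: cytotoxicity by LDH release measuring loss of membrane integrity.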 Format: functional, cell-based. To be noted: Homo sapiens.
The nature of assay [12]: inhibitors of SNCA 5'UTR-driven reporter translation, confirmation, H4 neuroglioma cells, luminescence (AID 1988). Format: functional, cell-based.
Assay [13] can be described thus: Luminescence Cell-Based Dose Response HTS to Identify Inhibitors of 5'UTR Stem-Loop Driven Prion Protein mRNA Translation in H4 Neuroglioblastoma Cells. [Related pubchem assays: 1827 (Project Summary), 1813 (Primary HTS)]. Format: functional.
For assay [14], the target named is T3, Insulin-degrading enzyme (Homo sapiens, UniProt P14735).
T3 sequence (P14735 whole entry): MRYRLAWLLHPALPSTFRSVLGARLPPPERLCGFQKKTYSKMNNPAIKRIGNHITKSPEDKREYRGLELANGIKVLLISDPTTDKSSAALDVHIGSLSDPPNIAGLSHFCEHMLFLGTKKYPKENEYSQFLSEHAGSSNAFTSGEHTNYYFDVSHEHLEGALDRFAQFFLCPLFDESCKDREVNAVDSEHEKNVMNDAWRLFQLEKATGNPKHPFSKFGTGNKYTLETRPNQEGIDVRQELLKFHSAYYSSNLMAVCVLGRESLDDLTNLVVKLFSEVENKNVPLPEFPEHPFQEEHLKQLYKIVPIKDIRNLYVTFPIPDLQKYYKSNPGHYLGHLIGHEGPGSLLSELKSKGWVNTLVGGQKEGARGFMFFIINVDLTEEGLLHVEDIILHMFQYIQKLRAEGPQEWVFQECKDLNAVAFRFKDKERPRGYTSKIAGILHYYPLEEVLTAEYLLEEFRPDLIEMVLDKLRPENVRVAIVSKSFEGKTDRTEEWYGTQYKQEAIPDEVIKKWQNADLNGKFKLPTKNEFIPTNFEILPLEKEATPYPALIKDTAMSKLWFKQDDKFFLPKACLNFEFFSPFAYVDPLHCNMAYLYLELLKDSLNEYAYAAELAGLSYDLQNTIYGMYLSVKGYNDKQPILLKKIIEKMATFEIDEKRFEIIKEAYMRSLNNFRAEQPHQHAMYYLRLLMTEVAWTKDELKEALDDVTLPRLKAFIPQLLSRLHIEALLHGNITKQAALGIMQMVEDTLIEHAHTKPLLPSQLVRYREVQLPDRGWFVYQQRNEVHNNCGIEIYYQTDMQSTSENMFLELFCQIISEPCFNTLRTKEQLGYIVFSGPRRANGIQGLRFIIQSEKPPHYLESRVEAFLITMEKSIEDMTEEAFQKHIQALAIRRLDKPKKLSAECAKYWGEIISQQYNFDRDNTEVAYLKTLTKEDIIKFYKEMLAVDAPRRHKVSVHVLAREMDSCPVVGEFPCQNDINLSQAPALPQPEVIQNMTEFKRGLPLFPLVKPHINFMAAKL
The assay is described as follows: activators of endogenous IDE in HEK cells, dose response, cell-based, fluorescence polarization (AID 588439). The assay is classed as functional.

In assay [15] the target is T3, Insulin-degrading enzyme. Kind of assay: activators of recombinant IDE enzyme, dose response, counter-screen for IDE activator project, biochemical, fluorescence polarization (AID 588681).
The nature of assay [16]: HEp-2 cell cytotoxicity, dose response, cytotoxicity control for RSV inhibitor project, HTS (AID 2410). The assay is classed as functional. To be noted: human respiratory syncytial virus.
Assay [17] has as its target T4, Sentrin-specific protease 8 (Homo sapiens, UniProt Q96LD8).
T4 sequence (Q96LD8 whole entry): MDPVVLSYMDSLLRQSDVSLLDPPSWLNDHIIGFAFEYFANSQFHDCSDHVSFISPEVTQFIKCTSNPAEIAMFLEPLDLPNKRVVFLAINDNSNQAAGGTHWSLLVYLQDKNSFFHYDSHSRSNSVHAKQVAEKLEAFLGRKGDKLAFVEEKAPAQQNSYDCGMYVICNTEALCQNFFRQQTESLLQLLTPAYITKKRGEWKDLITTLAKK
Format: functional.

In assay [18] the target is T4, Sentrin-specific protease 8. Format: functional. This is another data set of the same source.
A short description of assay [19]: intracellular Trypanosoma cruzi inhibitors in host cells – cell-based, plate reader, cherry-pick samples, set 3, dose response (AID 651818).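 Note: compounds incubated with infected cells for about four days.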 Format: functional.

In the case of `COc1ccccc1NC(=O)c1ccc(NC(=O)CSc2nnnn2C)cc1`, the IC50 is 0.77 µM (active) in assay [1], 35.9 µM (inactive) in assay [2] and 0.437 µM (active) in [4]. The CC50 in [3] is > 40 µM (active).

In the case of `CN(C)CCCNc1nc(-c2ccc(Cl)cc2)nc2ccccc12`, the AC50 in [5] is 22.5 µM (active).

Take `O=C(c1ccco1)N1N=C(c2cccs2)CC1c1ccccc1O` (stereo unspecified): in assay [6], the EC50 is > 53 µM (inactive). Also, the IC50 was 6.11 µM (active) in assay [7] and 12.8 µM (active) in assay [8].

Consider `COc1cc(NC(=O)N2CCNC2=O)cc(C(=O)Nc2cccc(C(F)(F)F)c2)c1`, for which the values for the IC50 in assay [9] and in [11] were > 80 µM (inactive) and > 89.2 µM (inactive), respectively. In addition, the EC50 was > 54.7 µM (inactive) in assay [10]; 6.31 µM (active) in [12]; 9.79 µM (active) in assay [13]; > 54.7 µM (inactive) in [14]; > 54.7 µM (inactive) in assay [15].

For `Cc1ccc(O)c(NC(=S)NC(=O)COc2ccc(Br)cc2)c1`, the EC50 in assay [10] is > 55.9 µM (inactive); in assay [6], 7 µM (active); in assay [14], > 54.7 µM (inactive); in [15] it was > 54.7 µM (inactive). Moreover, the IC50 in assay [11] is 10.7 µM (inactive).

For the compound `NC(CO)c1cn([C@@H](CCC(=O)O)C(=O)N2CCNCC2)nn1` (stereo partly specified), the EC50 was > 55.9 µM (inactive) in assay [10], > 54.7 µM (inactive) in [14] and > 54.7 µM (inactive) in assay [15]. Further, in [11], the IC50 is > 89.2 µM (inactive).

Turning to `Nc1c(C(=O)CSc2nc3ccccc3o2)c(=O)[nH]c(=O)n1C1CC1`, the EC50 in [10], in assay [14] and in assay [15] was > 54.7 µM (inactive) each time. The IC50 in [11] is > 89.2 µM (inactive). Also, the CC50 in assay [16] was 26.3 µM (active).

Regarding `COc1cc2nc3c(O)n(CCN(C(C)C)C(C)C)cnc-3c2cc1OC`, the AC50 in assay [5] is 47.7 µM (active).

With `O=C(c1ccc([N+](=O)[O-])cc1)N(Cc1ccccc1)Cc1ccccc1`, the EC50 in assay [6] was > 53 µM (inactive). Besides, the IC50 in [7] is 8.56 µM (active); in [8], > 20 µM (inactive).

Regarding `COc1cc(OC)cc(C(=O)N[C@H](C(=O)OCC(=O)Nc2ccc3c(c2)OCO3)C(C)C)c1`, the values for the IC50 in [1], in assay [2] and in assay [4] were 5.72 µM (active), 35.9 µM (inactive) and 4.71 µM (active), respectively.

Consider `COc1ccc(CCNC(=O)COC(=O)Cc2ccccc2[N+](=O)[O-])cc1`, for which the figures for the IC50 in [1], in assay [2] and in assay [4] were 2.36 µM (active), 35.9 µM (inactive) and 35.9 µM (inactive), respectively.

As for `O=C(Nc1c(-c2ccccc2)n[nH]c1O)c1cccc(C(F)(F)F)c1`, the IC50 in [17] is 65.3 µM (inactive); in assay [18], 87.3 µM (inactive).

In the case of `C[C@@H]1CN([C@H](C)CO)C(=O)Cc2cc(N(C)C)ccc2O[C@H]1CN(C)Cc1ccc(C(=O)Nc2ccccc2N)cc1`, in assay [19], the AC50 is 3.46 µM (active).

For the compound `C[C@@H]1CN([C@H](C)CO)C(=O)Cc2cc(NC(=O)C3CCCCC3)ccc2O[C@@H]1CN(C)Cc1ccc(Cl)c(Cl)c1`, the AC50 in assay [19] was 2.15 µM (active).

For `C[C@H](CO)N1C[C@H](C)[C@H](CN(C)Cc2ccc(-c3ccccc3)cc2)Oc2ccc(NC(=O)Cc3cn(C)c4ccccc34)cc2C1=O`, in assay [19], the AC50 is 15 µM (active).

Take `O=C(COC(=O)c1ccc([N+](=O)[O-])o1)NC12CC3CC(CC(C3)C1)C2`: the IC50 in assay [17] was 6.85 µM (active); in [18], 5.13 µM (active).
